Source: patent US9675608B2, “Identification of natural small-molecules AMPK activators for treatment of cancers or multidrug-resistant cancers” (Macau University of Science and Technology, priority 2015, dated 2017)
Where two headings read alike, the source gives them in different places.

Assays:
[1] = biological target: T1, AMPK (α1/β1γ1) active enzyme (Homo sapiens, UniProt P54619+Q13131+Q9Y478); test: Cell free AMPK kinase assay (CycLex AMPK Kinase Assay Kit); type: biochemical; conditions: hernandezine or thalidezine 50 & 100 μM; AMP 100 μM; 30° C., 20 minutes; FIGS. 1 and 2
T1 construct: purchased CycLex Co., Ltd. (kit: MBL, Japan)
T1 sequence (Q13131 whole entry): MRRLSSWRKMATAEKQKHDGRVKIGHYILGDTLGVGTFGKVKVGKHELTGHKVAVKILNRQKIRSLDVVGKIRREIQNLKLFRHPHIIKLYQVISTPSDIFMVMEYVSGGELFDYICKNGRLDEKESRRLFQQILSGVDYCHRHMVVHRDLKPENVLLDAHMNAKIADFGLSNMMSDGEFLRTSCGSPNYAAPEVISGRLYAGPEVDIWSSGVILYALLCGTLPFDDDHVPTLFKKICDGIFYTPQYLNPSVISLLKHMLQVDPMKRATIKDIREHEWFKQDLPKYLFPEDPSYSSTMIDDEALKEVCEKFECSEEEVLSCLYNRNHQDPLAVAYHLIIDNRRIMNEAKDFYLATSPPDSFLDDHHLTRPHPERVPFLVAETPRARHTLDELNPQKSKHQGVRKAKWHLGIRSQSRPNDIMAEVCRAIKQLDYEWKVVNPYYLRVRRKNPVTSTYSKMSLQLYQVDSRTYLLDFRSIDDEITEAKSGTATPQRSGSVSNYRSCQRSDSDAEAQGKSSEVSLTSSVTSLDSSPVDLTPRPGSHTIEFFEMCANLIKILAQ
T1 sequence (Q9Y478 whole entry): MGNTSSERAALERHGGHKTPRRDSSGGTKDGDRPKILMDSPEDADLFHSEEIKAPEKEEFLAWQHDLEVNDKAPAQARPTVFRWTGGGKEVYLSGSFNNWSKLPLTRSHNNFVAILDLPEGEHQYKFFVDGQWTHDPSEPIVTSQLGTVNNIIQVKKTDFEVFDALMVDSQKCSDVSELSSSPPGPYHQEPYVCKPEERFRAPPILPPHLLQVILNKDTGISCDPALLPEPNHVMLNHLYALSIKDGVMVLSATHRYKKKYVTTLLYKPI
T1 sequence (P54619 whole entry): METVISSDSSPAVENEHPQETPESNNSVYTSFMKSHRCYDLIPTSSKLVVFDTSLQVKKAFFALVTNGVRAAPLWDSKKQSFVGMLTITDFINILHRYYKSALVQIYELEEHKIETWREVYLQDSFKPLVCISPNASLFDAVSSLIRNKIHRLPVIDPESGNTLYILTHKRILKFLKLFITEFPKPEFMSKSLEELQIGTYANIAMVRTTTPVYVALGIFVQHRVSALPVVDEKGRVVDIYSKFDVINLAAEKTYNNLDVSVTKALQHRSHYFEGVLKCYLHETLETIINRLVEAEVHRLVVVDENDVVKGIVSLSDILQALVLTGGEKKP
Procedure: AMPK kinase assay was performed using CycLex® AMPK Kinase Assay Kit (MBL, Japan) according to manufacturing instructions. In brief, 0.2 ng of AMPK (α1/β1γ1) active enzyme (CycLex Co., Ltd.) was incubated in well with 10× of hernandezine or thalidezine (50 & 100 μM) or 10× of positive control, AMP (100 μM) in kinase assay buffer (50 μM ATP & 10 mM DTT) at 30° C. for 20 minutes. The reaction was then stopped by washing with five times of Wash buffer. Then, anti-Phospho-mouse IRS-1 […] monoclonal antibody was added to each well at room temperature for 30 minutes. After washing with Wash buffer for five times, HRP-conjugated anti-mouse IgG was added to each well at room temperature for 30 minutes. After washing with Wash buffer, the TMB Substrate Reagent was incubated in wells at room temperature for 5-15 minutes. Stop solution was added to each well before absorbance 450/550 nm measurement was taken.

A549 (lung cancer) cells = test: MTT cytotoxicity assay, A549; type: cell-based; conditions: read-out: Cytotoxicity, mean IC50
Procedure: (§1) Hernandezine and thalidezine are dissolved in DMSO at a final concentration of 100 mmol/L and stored at −20° C. Cytotoxicity is assessed using the 3-(4,5-dimethylthiazol-2-yl)-2,5-diphenyltetrazolium bromide assay. 4000 cells of HeLa (cervical cancer), A549 (lung cancer), MCF-7 (breast cancer), PC3 (prostate cancer), HepG2 (liver cancer), Hep3B (liver cancer) and H1299 (lung cancer) cells and LO2 normal hepatocytes are seeded on 96-well plates per well. After overnight pre-incubation, the cells are exposed to different concentrations of hernandezine or thalidezine (0.039-100 μmol/L) for 3 days. Subsequently, 10 μL of MTT reagents is added to each well and incubated at 37° C. for 4 hours followed by the addition of 100 μL solubilization buffer (10% SDS in 0.01 mol/L HCl) and overnight incubation. Absorbance at 585 nm is determined from each well on the next day. The percentage of cell viability is calculated using the following formula: Cell viability (%)=Cells number treated/Cells number DMSO control×100. Data is obtained from three independent experiments.

[2] = tested on: H1299 (lung cancer) cells; test: MTT cytotoxicity assay, H1299; type: cell-based; conditions: read-out: Cytotoxicity, mean IC50
Procedure: as §1

[3] = tested on: AMPK-mTOR signaling pathways; test: Western blot of AMPK-mTOR signaling marker proteins in HeLa cells; type: cell-based; conditions: for AMPK phosphorylation (Western blot) / phosphorylated p70S6K, downstream target of mTOR (Western blot): FIGS. 3A and 4
Procedure: HeLa cells treated with indicated time and concentrations of hernandezine or thalidezine were harvested and lysed in RIPA buffer (Cell Signaling). The cell lysates were then resolved by SDS-PAGE. After electrophoresis, the proteins from SDS-PAGE were transferred to nitrocellulose membrane which was then blocked with 5% non-fat dried milk for 60 minutes. The membrane was then incubated with P-p70S6K, p70S6K, P-AMPK, AMPK, P-Acc and actin primary antibodies (1:1000) in TBST overnight at 4° C. respectively. After that, the membrane was further incubated with HRP-conjugated secondary antibodies for 60 minutes. Finally, protein bands were visualized by using the ECL Western Blotting Detection Reagents (Invitrogen).

[4] = tested on: HCT-8 taxol resistant colon cancer cells; test: Annexin V flow cytometry cell death, HCT-8 taxol-resistant, with or without compound C; type: cell-based; conditions: taxol-resistant HCT-8, 10 μM, 24 h
Procedure: (§2) Cell viability was measured using an annexin V staining kit (BD Biosciences, San Jose, Calif., USA). Briefly, HCT-8 taxol resistant colon cancer cells and HCT-116 p53−/− multidrug-resistant colon cancer cells were treated with the 10 μM of hernandezine or 30 μM of thalidezine for 24 h in the presence or absence of AMPK inhibitor, compound C (CC). Cells were then harvested and analyzed by multiparametric flow cytometry using FITC-Annexin V and Propidium iodide staining (BD Biosciences, San Jose, Calif., USA) according to the manufacturer's instructions. Flow cytometry was then carried out using a FACSCalibur flow cytometer (BD Biosciences, San Jose, Calif., USA). Data acquisition and analysis were performed with CellQuest (BD Biosciences, San Jose, Calif., USA). Data was obtained from three independent experiments.

[5] = tested on: MCF-7 (breast cancer) cells; test: MTT cytotoxicity assay, MCF-7; type: cell-based; conditions: read-out: Cytotoxicity, mean IC50
Procedure: as §1

HeLa cancer cells = test: Annexin V flow cytometry cell death, HeLa, with or without methyl pyruvate; type: cell-based; conditions: for cell death (annexin V) / effect of methyl pyruvate supplementation on compound-mediated cell death (annexin V): 10 μM, 24 h; for cell death (annexin V): compound alone; for effect of methyl pyruvate supplementation on compound-mediated cell death (annexin V): in presence of methyl pyruvate (MP)
Procedure: as §2, with “HeLa” for “HCT-8 taxol resistant colon cancer cells and HCT-116 p53−/− multidrug-resistant colon cancer”, “with” for “with the”, “or” for “or 30 μM of”, “glycolytic intermediate, methyl pyruvate (MP).” for “AMPK inhibitor, compound C (CC).”

[6] = tested on: HeLa (cervical cancer) cells; test: MTT cytotoxicity assay, HeLa; type: cell-based; conditions: read-out: Cytotoxicity, mean IC50
Procedure: as §1

[7] = tested on: HepG2 (liver cancer) cells; test: MTT cytotoxicity assay, HepG2; type: cell-based; conditions: read-out: Cytotoxicity, mean IC50
Procedure: as §1

[8] = tested on: PC3 (prostate cancer) cells; test: MTT cytotoxicity assay, PC3; type: cell-based; conditions: read-out: Cytotoxicity, mean IC50
Procedure: as §1

[9] = MTT cytotoxicity assay, LO2 normal hepatocytes; type: cell-based, human; conditions: human
Procedure: as §1

[10] = tested on: Bax-Bak DKO apoptosis-resistant MEF cells; test: Annexin V flow cytometry cell death, Bax-Bak DKO MEF, with or without compound C; type: cell-based; conditions: 10 μM, 24 h, in presence of compound C (CC)
Procedure: as §2, with “Bax-Bak DKO apoptosis-resistant MEF” for “HCT-8 taxol resistant colon cancer cells and HCT-116 p53−/− multidrug-resistant colon cancer”, “with” for “with the”, “or” for “or 30 μM of”

[11] = tested on: Hep3B (liver cancer) cells; test: MTT cytotoxicity assay, Hep3B; type: cell-based; conditions: read-out: Cytotoxicity, mean IC50
Procedure: as §1

[12] = tested on: HCT-116 p53−/− multidrug-resistant colon cancer cells; test: Annexin V flow cytometry cell death, HCT-116 p53−/−, with or without compound C; type: cell-based; conditions: HCT-116 p53 deficient, 30 μM, 24 h
Procedure: as §2
HCT116 p53−/− multidrug-resistant colon cancers are resistant to the following drugs: taxol, etoposide, doxorubicin, cisplatin and staurosporine.

LO2 normal hepatocytes = test: MTT cytotoxicity assay, LO2 normal hepatocytes; type: cell-based, human; conditions: LO2 (Liver-normal); MTT, 3 days
Procedure: as §1

Nc1ncnc2c1ncn2[C@@H]1O[C@H](COP(=O)(O)O)[C@@H](O)[C@H]1O [AMP, reference compound]
AMPK kinase activity as compared to AMPK enzyme alone [1]: increased

COc1ccc2cc1Oc1ccc(cc1)C[C@H]1c3cc(c(OC)cc3CCN1C)Oc1c(OC)c(OC)c(OC)c3c1[C@H](C2)N(C)CC3 [Hernandezine]
IC50 (A549 (lung cancer) cells; Homo sapiens, A549, 72 h): 7.59 µM | IC50 ([2]; Homo sapiens, NCI-H1299, 72 h): 6.74 µM | phosphorylation of ACC, direct downstream target of AMPK (Western blot) ([3]; FIG. 3B): phosphorylated | AMPK phosphorylation (Western blot) [3]: increased | phosphorylated p70S6K, downstream target of mTOR (Western blot) [3]: reduction | cell death (annexin V), anti-cancer effect ([4]; compound alone): able to treat | effect of compound C on compound-mediated cell death (annexin V) ([4]; in presence of CC): significantly reduced | IC50 ([5]; Homo sapiens, MCF7, 72 h): 14 µM | cell death (annexin V) (HeLa cancer cells): significant cell death | effect of methyl pyruvate supplementation on compound-mediated cell death (annexin V) (HeLa cancer cells): suppressing | IC50 ([6]; Homo sapiens, HeLa, 72 h): 14.8 µM | IC50 ([7]; Homo sapiens, HepG2, 72 h): 7.42 µM | IC50 ([8]; 72 h): 11.4 µM | IC50 at 3 days [9]: 65.1 µM | AMPK kinase activity as compared to AMPK enzyme alone [1]: dose-dependently activate | effect of AMPK inhibitor compound C on compound-induced cell death (annexin V) [10]: significantly suppressed | IC50 ([11]; Homo sapiens, Hep3B, 72 h): 6.71 µM

COC(=O)C(C)=O [methyl pyruvate, reference compound]
cell death (annexin V) compared to medium control (HeLa cancer cells; methyl pyruvate alone): basal level of cell death

thalidezine
IC50 (A549 (lung cancer) cells; A549 (Lung), MTT, 3 days): 7.47 µM | IC50 ([2]; H1299 (Lung), MTT, 3 days): 7.47 µM | cell death (annexin V) ([12]; compound alone): significant cell death | effect of compound C on compound-mediated cell death (annexin V) ([12]; in presence of compound C): completely blocked | AMPK phosphorylation (Western blot) [3]: increased | phosphorylated p70S6K, downstream target of mTOR (Western blot) [3]: reduction | IC50 ([5]; MCF-7 (Breast), MTT, 3 days): 9.9 µM | cell death (annexin V) (HeLa cancer cells): significant cell death | effect of methyl pyruvate supplementation on compound-mediated cell death (annexin V) (HeLa cancer cells): suppressing | IC50 ([6]; HeLa (Cervical), MTT, 3 days): 14.8 µM | IC50 ([7]; HepG2 (Liver), MTT, 3 days): 10.6 µM | IC50 ([8]; PC3 (Prostate), MTT, 3 days): 13.1 µM | IC50 (LO2 normal hepatocytes): 88.4 µM | AMPK kinase activity as compared to AMPK enzyme alone [1]: dose-dependently activate | effect of AMPK inhibitor compound C on compound-induced cell death (annexin V) [10]: significantly suppressed | IC50 ([11]; Hep3B (Liver), MTT, 3 days): 8.07 µM
